Measured values published in patent US11529511B2, “Using alternating electric fields to increase cell membrane permeability” (The Board of Trustees of the Leland Stanford Junior …, priority 2018, dated 2022).

Experiments:
[1] = target: T1, firefly luciferase (Photinus pyralis, UniProt P08659); test: Activity of purified firefly luciferase exposed to TTFields; assay type: biochemical; conditions: TTFields vs. no TTFields, p<0.01
T1 construct: purchased Sigma Aldrich Inc SRE0045-2MG

[2] = tested on: GBM39/Luc cells; test: Drug sensitivity and synergy with TTFields; assay type: cell-based, human; conditions: TTFields for 3 days vs. no TTFields
[3] = tested on: U87-MG cells; test: 5-ALA uptake measured by PpIX fluorescence, single U87-MG culture; assay type: cell-based, human
Description: Experiments were performed to determine the effects of TTFields on uptake of 5-ALA (as measured by PpIX accumulation and its resultant fluorescence) in glioblastoma cells. Because it is difficult to distinguish the margin between tumor and normal cells using the present 5-ALA bioassay, the measurement of PpIX fluorescence was used to address this issue. Investigations were run to determine whether permeation of 5-ALA through the cellular membrane and into the glioblastoma cells could be increased with TTFields exposure. U87-MG cells were exposed or unexposed to TTFields, each for durations of 6-24 h.
All monovariant statistical comparisons between no TTFields vs. TTFields samples done by Student's t-test for n=3 experiments per time point.

[4] = tested on: U87-MG/eGFP-fLuc cells; test: Reversibility of the TTFields effect on uptake (BLI, PpIX, Dextran-FITC fluorescence); assay type: cell-based, human; conditions: TTFields 24 h vs. none vs. TTFields 24 h followed by 24 h no TTFields
From the text: All experimental conditions were done in triplicate.

[5] = tested on: U87-MG GBM on PCS-201 fibroblast co-cultures; test: 5-ALA uptake (PpIX fluorescence) in U87-MG GBM on PCS-201 fibroblast co-cultures
[6] = tested on: U87-MG/eGFP-fLuc cells; test: Annexin-V-APC binding (apoptosis) by fluorescence microscopy; assay type: cell-based, human; conditions: 21 μM, TTFields-unexposed
Description: To test if the imposition of TTFields affects cell membrane properties, and thus membrane permeability, the effect of TTFields on the behavior of fluorescently tagged reagents that bind to the cellular membrane was determined. Initially, the impact of TTFields on the binding of Annexin-V-APC to the membrane of U87-MG/eGFP-fLuc cells was measured. Annexin-V-APC binding is a signature of early apoptosis which is characterized by ruffling of the membrane.

[7] = tested on: human glioblastoma cells; test: Growth inhibition by TTFields in conjunction with Withaferin A; assay type: cell-based
From the text: In this figure, 5-ALA=5-aminolevulinic acid; Ethidium D=ethidium bromide; and FITC=fluorescein isothiocyanate.

[8] = tested on: MDA-MB-435 cells, wild type; test: Intracellular accumulation of doxorubicin under alternating electric fields; assay type: cell-based, human; conditions: 10 μM, 1 h; 150 kHz, 1.62 V/cm vs. no field
[9] = tested on: MDA-MB-435 cells, doxorubicin resistant; test: as above; assay type: cell-based, human; conditions: 10 μM, 1 h; 150 kHz, 1.62 V/cm vs. no field
[10] = tested on: MDA-MB-235 cells; test: Drug sensitivity and synergy with TTFields; assay type: cell-based; conditions: TTFields for 3 days vs. no TTFields
[11] = tested on: MES-SA cells; test: Intracellular accumulation of doxorubicin under 150 kHz alternating electric fields; assay type: cell-based; conditions: 10 μM, 1 h, 1.62 V/cm RMS, 24 hours vs. no field
[12] = tested on: MCF-7 cells, mitoxantrone resistant; test: Intracellular accumulation of mitoxantrone under alternating electric fields; assay type: cell-based, human; conditions: 2 μM, 1 h; 150 kHz, 1.62 V/cm vs. no field
Description: (§1) The intracellular accumulation of mitoxantrone was then measured.

[13] = tested on: MCF-7 cells, wild type; test: as above; assay type: cell-based, human; conditions: 2 μM, 1 h; 150 kHz, 1.62 V/cm vs. no field
Description: as §1

[14] = tested on: KR158B; test: Bioluminescence of Renilla luciferase-expressing astrocytoma cells, TTFields vs. no TTFields; assay type: cell-based, murine
Description: Studies were then performed that validate the hypothesis.
Renilla luciferase activity is not dependent upon ATP and magnesium (as opposed to firefly luciferase). Thus, it is believed that the induction of bioluminescence by TTFields was not due to alterations in endogenous pools of ATP.

[15] = tested on: glioblastoma patients; test: Survival of glioblastoma patients, TTFields plus temozolomide vs. temozolomide alone; assay type: in vivo, human; conditions: after 1 year of TTFields exposure
From the text: The treatment of glioblastoma (GBM) using alternating electric fields is a novel, validated therapy that has become an additional modality (after surgery chemoradiation and chemotherapy) for anti-cancer treatments. Intermediate frequency alternating electric fields (100-500 kHz) have been studied in detail. […] In the context of treating tumors, alternating electric fields at these frequencies are often referred to as “tumor treating fields” or “TTFields.”
Recurrence of GBM is inevitable and the median time to first recurrence despite standard therapy is approximately 7 months. […] TTFields compliance (≥75% vs. <75%) was an independent predictor of overall survival in the retrospective analysis of the full EF-14 trial dataset and the duration of use of TTFields was also found to affect overall survival. […] Namely, a correlation between the length of TTFields exposure and the duration of its effect on cell membrane permeability after cessation of TTFields was observed. At lengths of TTFields exposure of 0.5-3 h, the duration in BLI augmentation (compared to no TTFields conditions) lasted about 5 min. However, at TTFields exposures of 12-25 h, this difference in BLI between TTFields and no TTFields conditions lasted for more than 20 min.

[16] = tested on: U87-MG/eGFP-fLuc cells; conditions: TTFields 4 V/cm, 200 kHz, 0.5-24 h vs. no TTFields
Description: U87-MG/eGFP-fLuc cells were seeded on Thermanox glass coverslips, allowed to settle and grow, and then subjected to either TTFields or no TTFields.
The coverslips were transferred to a ceramic dish of the Inovitro™ system, which in turn was mounted onto Inovitro™ base plates (Novocure Ltd., Haifa, Israel). Tumor treating fields at 200 kHz (1-4 V/cm) were applied through an Inovitro™ power generator. Incubator ambient temperatures spanned 20-27° C. with a target temperature of 37° C. in the ceramic dishes upon application of the TTFields. Duration of TTFields exposure lasted anywhere from 0.5 to 72 h, after which coverslips were removed and processed for the appropriate bioassays (see below). For reversibility experiments, the TTFields-exposed coverslips were transferred to a regular incubator without TTFields exposure for 24 h (off TTFields period to assess for reversibility of the TTFields effect on cell membrane permeability) prior to processing for the appropriate bioassays. Culture media were exchanged manually every 24 h throughout the experiments to account for evaporation. Corresponding control experiments (no TTFields) were done by placing equivalent coverslips within 6-well or 12-well plates into a conventional humidified tissue culture incubator (37° C., 95% air/5% CO2) and cells grown in parallel with the TTFields-exposed coverslips. […]

[17] = tested on: U87-MG/GFP-Luc cells; test: Drug sensitivity and synergy with TTFields; assay type: cell-based, human; conditions: TTFields for 3 days vs. no TTFields
[18] = tested on: GBM39 cells; test: Drug sensitivity with TTFields; assay type: cell-based, human; conditions: TTFields for 3 days vs. no TTFields
[19] = tested on: pcGBM2/GFP-Luc cells; conditions: TTFields for 3 days vs. no TTFields
[20] = tested on: U87-MG cells; test: Timing of permeability to 7-AAD after cessation of the field, flow cytometry; assay type: cell-based, human; conditions: 300 kHz, 1.62 V/cm RMS, 24 h; 7-AAD added 15 minutes prior to cessation of the field
Description: FIG. 7D depicts the results of an experiment to test how quickly the permeability drops back down after cessation of the alternating electric fields. More specifically, 7-Aminoactinomycin D (7-AAD) is a fluorescent chemical compound with a strong affinity for DNA. […] 7-AAD was introduced into samples at five different times: 15 minutes prior to the cessation of the alternating electric field; immediately after cessation of the alternating electric field; and 15, 30, and 60 minutes after cessation of the alternating electric field. In each case, the cells were incubated with 7-AAD for 30 minutes after introduction of the 7-AAD, followed by flow cytometry analysis of the percentage of cells with increased accumulation of the fluorescent 7-AAD for each of the different timings.

[21] = tested on: MDA-MB-435 human melanoma cell line cells; test: Permeability to 7-AAD under alternating electric fields, flow cytometry; assay type: cell-based; conditions: 150 kHz, 24 h
Description: After this 15 minute period, alternating electric field application was terminated and the cells were incubated at room temperature for an additional 15 minutes.
After this 24 hour period, the alternating electric fields were turned off for 15 minutes, after which the 7-AAD was added. After waiting an additional 15 minutes, the percentage of cells with increased accumulation of the fluorescent 7-AAD was determined using flow cytometry.

T1 sequence (P08659 whole entry): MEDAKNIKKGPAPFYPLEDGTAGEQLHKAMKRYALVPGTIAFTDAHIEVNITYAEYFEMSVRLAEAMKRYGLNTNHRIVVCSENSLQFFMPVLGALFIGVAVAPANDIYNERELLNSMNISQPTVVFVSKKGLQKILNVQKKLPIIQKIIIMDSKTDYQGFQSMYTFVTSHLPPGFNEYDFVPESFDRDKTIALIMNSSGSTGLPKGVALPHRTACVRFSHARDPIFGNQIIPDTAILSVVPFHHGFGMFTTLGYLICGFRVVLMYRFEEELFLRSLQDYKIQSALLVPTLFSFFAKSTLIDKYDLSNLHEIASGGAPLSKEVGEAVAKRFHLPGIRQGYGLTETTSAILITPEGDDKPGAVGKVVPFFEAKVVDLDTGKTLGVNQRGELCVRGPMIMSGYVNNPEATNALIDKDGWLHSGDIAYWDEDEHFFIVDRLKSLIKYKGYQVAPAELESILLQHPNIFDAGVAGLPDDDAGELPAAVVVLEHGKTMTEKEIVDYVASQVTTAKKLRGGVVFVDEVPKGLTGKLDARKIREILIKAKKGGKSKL

Molecule: firefly luciferase: purified firefly luciferase (SRE0045-2MG) purchased from Sigma Aldrich
- activity of purified firefly luciferase [1]: significantly decreased activity

Molecule: CCc1c2c(nc3ccc(OC(=O)N4CCC(N5CCCCC5)CC4)cc13)-c1cc3c(c(=O)n1C2)COC(=O)[C@]3(O)CC [Irinotecan]
- sensitivity of cells to the drug [2]: improves the sensitivity

Molecule: NCC(=O)CCC(=O)O [5-ALA, 5-aminolevulinic acid]
- uptake (PpIX fluorescence) ([3]; 6 h TTFields (200 kHz) vs. no TTFields, p=0.047): significantly increased uptake
- uptake (PpIX fluorescence) ([3]; 24 h TTFields (200 kHz) vs. no TTFields, p=0.011): increase was maintained
- uptake with field and after cessation of the field [4]: reversibly increase uptake
- rate of PpIX fluorescence intensity increase ([5]; TTFields 2, 6, 24 h vs. unexposed co-cultures, p<0.001): significantly augmented
- tumor to normal cell ratio for PpIX fluorescence ([5]; TTFields vs. no TTFields): significantly enhances

Molecule: CC1=C(CO)C(=O)O[C@@H]([C@@H](C)[C@H]2CC[C@H]3[C@@H]4C[C@H]5O[C@]56[C@@H](O)C=CC(=O)[C@]6(C)[C@H]4CC[C@]23C)C1 [Withaferin A]
- Annexin-V-APC binding (positive control for apoptosis) [6]: could be visualized
- growth inhibition in conjunction with TTFields [7]: synergistically inhibited the growth

Molecule: COc1cccc2c1C(=O)c1c(O)c3c(c(O)c1C2=O)C[C@@](O)(C(=O)CO)C[C@@H]3O[C@H]1C[C@H](N)[C@H](O)[C@H](C)O1 [doxorubicin]
- intracellular accumulation [8]: increased
- intracellular accumulation [9]: increased
- sensitivity of cells to the drug [10]: improves the sensitivity
- increase of intracellular accumulation [11]: more than 2 ×

Molecule: O=C1c2c(O)ccc(O)c2C(=O)c2c(NCCNCCO)ccc(NCCNCCO)c21 [mitoxantrone]
- intracellular accumulation [12]: increased
- intracellular accumulation [13]: increased

Molecule: Oc1ccc(Cc2nc3c(Cc4ccccc4)nc(-c4ccc(O)cc4)cn3c2O)cc1 [coelenterazine]
- permeation of the luciferase substrate through the plasma membrane (bioluminescence) [14]: increased permeation

Molecule: Cn1nnc2c(C(N)=O)ncn2c1=O [Temozolomide]
- percent increase in overall survival [15]: 32%

Molecule: O=C(O)[C@H]1CSC(c2nc3ccc(O)cc3s2)=N1 [D-luciferin]
- uptake with field and after cessation of the field [4]: reversibly increase uptake
- permeation of the luciferase substrate through the plasma membrane (bioluminescence) [16]: increased permeation

Molecule: O=NN(CCCl)C(=O)NC1CCCCC1 [Lomustine]
- sensitivity of cells to the drug [17]: improves the sensitivity
- sensitivity of cells to the drug [18]: improves the sensitivity
- sensitivity of cells to the drug [19]: improves the sensitivity

Molecule: Cc1c2oc3c(C)c(N)cc(C(=O)N[C@@H]4C(=O)N[C@H](C(C)C)C(=O)N5CCC[C@H]5C(=O)N(C)CC(=O)N(C)[C@@H](C(C)C)C(=O)O[C@@H]4C)c3nc-2c(C(=O)N[C@@H]2C(=O)N[C@H](C(C)C)C(=O)N3CCC[C@H]3C(=O)N(C)CC(=O)N(C)[C@@H](C(C)C)C(=O)O[C@@H]2C)c(N)c1=O [7-AAD, 7-Aminoactinomycin D]
- percentage of cells with increased accumulation of 7-AAD [20]: significant increase in accumulation
- percentage of cells with increased accumulation of 7-AAD ([21]; 1.62V/cm, 7-AAD added 15 minutes after fields turned off): ~20%
- percentage of cells with increased accumulation of 7-AAD ([21]; 1.62 V/cm, 7-AAD added for the last 15 minutes of the field): ~66%
